{"source": "patent US20240124491A1", "about": "“METHODS AND COMPOUNDS FOR TREATING FRIEDREICH'S ATAXIA” (Design Therapeutics, Inc., priority 2021, published 2024)", "data": [{"system": "human FXN", "test": "EC50 assay: FXN mRNA expression by qRT-PCR in GM15850 cells after 48 hrs compound treatment", "format": "cell-based", "details": "Homo sapiens, 48 hrs incubation, hFXN expression normalized to hGAPDH (qRT-PCR), read-out: EC50 WT (nM, 48 hr)", "experimental": "Cell culture: Cells were cultured in RPMI1640 medium+15% FBS. Cells were maintained at a density between 2e5/mL and 1e6/mL. Cells were centrifuged, resuspended in fresh medium, counted and plated at 150,000 cells per well in 100 uL in a non-coated, flat bottom tissue culture plate.\nCompound treatment: 10 mM stock solution of FA GeneTAC was diluted 1:10 in DMSO followed by a 1:100 dilution in growth medium. Working solution was then further diluted to 10× desired final concentration of 150 nM. Compound was then diluted at a 1:3 ratio into growth medium containing 0.01% DMSO. 5-point, 3-fold dose response curve was generated. 11 μL of 1OX compound was added to wells containing 100 μL cell suspension of GM15850. 11 μL growth medium containing 0.01% DMSO was added to all wells not treated with FA GeneTAC. Cells were allowed to incubate for 48 hrs prior to cell lysis using guanidine isothiocyanate solution.\nRNA isolation: Total RNA was isolated and purified in 384-well column filter plates using chaotropic salt.\nqRT-PCR: qRT-PCR reactions were assembled using AgPath-ID reagents (Thermo Fisher) using 6 uL mastermix and 4 μL RNA. qRT-PCR TaqMan primer probe sets against human FXN (Assay ID Hs01075496_m1) and human GAPDH (Assay ID Hs00266705_g1) were used to measure the intended targets. qRT-PCR was run on the ThermoFisher QuantStudio 6 PRO instrument using the manufacturer's recommended cycling conditions.\nData analysis: qPCR data was analyzed using Thermo Fisher Design and Analysis software. Data was exported to Excel and hFXN expression was normalized to hGAPDH expression\nA<100 nM; B is 100 nM to 500 nM; C>500 nM.", "units": {"EC50": "nM"}, "values": [{"molecule": "Cc1sc2c(c1C)C(c1ccc(Cl)cc1)=N[C@@H](CC(=O)Nc1ccc(N3CCN(CCOCCOCCOCCOCCOCCOCCOCCNC(=O)CCNC(=O)c4nc(NC(=O)CCNC(=O)c5cc(NC(=O)c6nc(NC(=O)CCNC(=O)c7cc(NC(=O)c8nccn8C)cn7C)cn6C)cn5C)cn4C)CC3)cc1)c1nnc(C)n1-2", "note": "[Compound 2]", "EC50": "< 100"}, {"molecule": "Cc1sc2c(c1C)C(c1ccc(Cl)cc1)=N[C@@H](CC(=O)Nc1ccc(N3CCN(CCOCCOCCOCCOCCOCCOCCNC(=O)CCNC(=O)c4nc(NC(=O)CCNC(=O)c5cc(NC(=O)c6nc(NC(=O)CCNC(=O)c7cc(NC(=O)c8nccn8C)cn7C)cn6C)cn5C)cn4C)CC3)cc1)c1nnc(C)n1-2", "note": "[Compound 3]", "EC50": "< 100"}, {"molecule": "Cc1sc2c(c1C)C(c1ccc(Cl)cc1)=N[C@@H](CC(=O)Nc1ccc(N3CCN(CCOCCOCCOCCOCCOCCNC(=O)CCNC(=O)c4nc(NC(=O)CCNC(=O)c5cc(NC(=O)c6nc(NC(=O)CCNC(=O)c7cc(NC(=O)c8nccn8C)cn7C)cn6C)cn5C)cn4C)CC3)cc1)c1nnc(C)n1-2", "note": "[Compound 4]", "EC50": "< 100"}, {"molecule": "Cc1sc2c(c1C)C(c1ccc(Cl)cc1)=N[C@@H](CC(=O)Nc1ccc(N3CCN(CC4CCN(CCOCCOCCOCCOCCOCCNC(=O)CCNC(=O)c5nc(NC(=O)CCNC(=O)c6cc(NC(=O)c7nc(NC(=O)CCNC(=O)c8cc(NC(=O)c9nccn9C)cn8C)cn7C)cn6C)cn5C)CC4)CC3)cc1)c1nnc(C)n1-2", "note": "[Compound 5]", "EC50": "100 to 500"}, {"molecule": "Cc1sc2c(c1C)C(c1ccc(Cl)cc1)=N[C@@H](CC(=O)Nc1ccc(N3CCN(CC4CCN(CCOCCOCCOCCOCCNC(=O)CCNC(=O)c5nc(NC(=O)CCNC(=O)c6cc(NC(=O)c7nc(NC(=O)CCNC(=O)c8cc(NC(=O)c9nccn9C)cn8C)cn7C)cn6C)cn5C)CC4)CC3)cc1)c1nnc(C)n1-2", "note": "[Compound 6]", "EC50": "100 to 500"}, {"molecule": "Cc1sc2c(c1C)C(c1ccc(Cl)cc1)=N[C@@H](CC(=O)Nc1ccc(N3CCN(CC4CCN(CCOCCOCCOCCNC(=O)CCNC(=O)c5nc(NC(=O)CCNC(=O)c6cc(NC(=O)c7nc(NC(=O)CCNC(=O)c8cc(NC(=O)c9nccn9C)cn8C)cn7C)cn6C)cn5C)CC4)CC3)cc1)c1nnc(C)n1-2", "note": "[Compound 7]", "EC50": "100 to 500"}, {"molecule": "Cc1sc2c(c1C)C(c1ccc(Cl)cc1)=N[C@@H](CC(=O)Nc1ccc(N3CCC(N4CCN(CCOCCOCCOCCOCCOCCOCCNC(=O)CCNC(=O)c5nc(NC(=O)CCNC(=O)c6cc(NC(=O)c7nc(NC(=O)CCNC(=O)c8cc(NC(=O)c9nccn9C)cn8C)cn7C)cn6C)cn5C)CC4)CC3)cc1)c1nnc(C)n1-2", "note": "[Compound 8]", "EC50": "< 100"}, {"molecule": "Cc1sc2c(c1C)C(c1ccc(Cl)cc1)=N[C@@H](CC(=O)Nc1ccc(N3CCC(N4CCN(CCOCCOCCOCCOCCOCCNC(=O)CCNC(=O)c5nc(NC(=O)CCNC(=O)c6cc(NC(=O)c7nc(NC(=O)CCNC(=O)c8cc(NC(=O)c9nccn9C)cn8C)cn7C)cn6C)cn5C)CC4)CC3)cc1)c1nnc(C)n1-2", "note": "[Compound 9]", "EC50": "< 100"}, {"molecule": "Cc1sc2c(c1C)C(c1ccc(Cl)cc1)=N[C@@H](CC(=O)Nc1ccc(N3CCC(N4CCN(CCOCCOCCOCCOCCNC(=O)CCNC(=O)c5nc(NC(=O)CCNC(=O)c6cc(NC(=O)c7nc(NC(=O)CCNC(=O)c8cc(NC(=O)c9nccn9C)cn8C)cn7C)cn6C)cn5C)CC4)CC3)cc1)c1nnc(C)n1-2", "note": "[Compound 10]", "EC50": "< 100"}, {"molecule": "Cc1sc2c(c1C)C(c1ccc(Cl)cc1)=N[C@@H](CC(=O)Nc1ccc(C#CC3CCN(CCOCCOCCOCCOCCOCCOCCNC(=O)CCNC(=O)c4nc(NC(=O)CCNC(=O)c5cc(NC(=O)c6nc(NC(=O)CCNC(=O)c7cc(NC(=O)c8nccn8C)cn7C)cn6C)cn5C)cn4C)CC3)cc1)c1nnc(C)n1-2", "note": "[Compound 11]", "EC50": "< 100"}, {"molecule": "Cc1sc2c(c1C)C(c1ccc(Cl)cc1)=N[C@@H](CC(=O)Nc1ccc(C#CC3CCN(CCOCCOCCOCCOCCOCCNC(=O)CCNC(=O)c4nc(NC(=O)CCNC(=O)c5cc(NC(=O)c6nc(NC(=O)CCNC(=O)c7cc(NC(=O)c8nccn8C)cn7C)cn6C)cn5C)cn4C)CC3)cc1)c1nnc(C)n1-2", "note": "[Compound 12]", "EC50": "< 100"}, {"molecule": "Cc1sc2c(c1C)C(c1ccc(Cl)cc1)=N[C@@H](CC(=O)Nc1ccc(C#CC3CCN(CCOCCOCCOCCOCCNC(=O)CCNC(=O)c4nc(NC(=O)CCNC(=O)c5cc(NC(=O)c6nc(NC(=O)CCNC(=O)c7cc(NC(=O)c8nccn8C)cn7C)cn6C)cn5C)cn4C)CC3)cc1)c1nnc(C)n1-2", "note": "[Compound 13]", "EC50": "< 100"}, {"molecule": "Cc1sc2c(c1C)C(c1ccc(Cl)cc1)=N[C@@H](CC(=O)Nc1ccc(C#CC#CCNCCOCCOCCOCCOCCOCCOCCNC(=O)CCNC(=O)c3nc(NC(=O)CCNC(=O)c4cc(NC(=O)c5nc(NC(=O)CCNC(=O)c6cc(NC(=O)c7nccn7C)cn6C)cn5C)cn4C)cn3C)cc1)c1nnc(C)n1-2", "note": "[Compound 14]", "EC50": "100 to 500"}, {"molecule": "Cc1sc2c(c1C)C(c1ccc(Cl)cc1)=N[C@@H](CC(=O)Nc1ccc(C#CC#CCNCCOCCOCCOCCOCCOCCNC(=O)CCNC(=O)c3nc(NC(=O)CCNC(=O)c4cc(NC(=O)c5nc(NC(=O)CCNC(=O)c6cc(NC(=O)c7nccn7C)cn6C)cn5C)cn4C)cn3C)cc1)c1nnc(C)n1-2", "note": "[Compound 15]", "EC50": "< 100"}, {"molecule": "Cc1sc2c(c1C)C(c1ccc(Cl)cc1)=N[C@@H](CC(=O)Nc1ccc(C#CC#CCNCCOCCOCCOCCOCCNC(=O)CCNC(=O)c3nc(NC(=O)CCNC(=O)c4cc(NC(=O)c5nc(NC(=O)CCNC(=O)c6cc(NC(=O)c7nccn7C)cn6C)cn5C)cn4C)cn3C)cc1)c1nnc(C)n1-2", "note": "[Compound 16]", "EC50": "< 100"}, {"molecule": "Cc1sc2c(c1C)C(c1ccc(Cl)cc1)=N[C@@H](CC(=O)N1CCN(CC3CCN(CCOCCOCCOCCOCCOCCN4CCC(CN5CCN(C(=O)CCNC(=O)c6nc(NC(=O)CCNC(=O)c7cc(NC(=O)c8nc(NC(=O)CCNC(=O)c9cc(NC(=O)c%10nccn%10C)cn9C)cn8C)cn7C)cn6C)CC5)CC4)CC3)CC1)c1nnc(C)n1-2", "note": "[Compound 18]", "EC50": "> 500"}, {"molecule": "Cc1sc2c(c1C)C(c1ccc(Cl)cc1)=N[C@@H](CC(=O)N1CCN(CC3CCN(CCOCCOCCOCCOCCN4CCC(CN5CCN(C(=O)CCNC(=O)c6nc(NC(=O)CCNC(=O)c7cc(NC(=O)c8nc(NC(=O)CCNC(=O)c9cc(NC(=O)c%10nccn%10C)cn9C)cn8C)cn7C)cn6C)CC5)CC4)CC3)CC1)c1nnc(C)n1-2", "note": "[Compound 19]", "EC50": "> 500"}, {"molecule": "Cc1sc2c(c1C)C(c1ccc(Cl)cc1)=N[C@@H](CC(=O)N1CCN(CC3CCN(CCOCCOCCOCCN4CCC(CN5CCN(C(=O)CCNC(=O)c6nc(NC(=O)CCNC(=O)c7cc(NC(=O)c8nc(NC(=O)CCNC(=O)c9cc(NC(=O)c%10nccn%10C)cn9C)cn8C)cn7C)cn6C)CC5)CC4)CC3)CC1)c1nnc(C)n1-2", "note": "[Compound 20]", "EC50": "> 500"}, {"molecule": "Cc1sc2c(c1C)C(c1ccc(Cl)cc1)=N[C@@H](CC(=O)N[C@H]1CC[C@H](N(C)CCOCCOCCOCCN3CCN(CCOCCOCCOCCNC(=O)CCNC(=O)c4nc(NC(=O)CCNC(=O)c5cc(NC(=O)c6nc(NC(=O)CCNC(=O)c7cc(NC(=O)c8nccn8C)cn7C)cn6C)cn5C)cn4C)CC3)CC1)c1nnc(C)n1-2", "note": "[Compound 21]", "EC50": "> 500"}, {"molecule": "Cc1sc2c(c1C)C(c1ccc(Cl)cc1)=N[C@@H](CC(=O)N[C@H]1CC[C@H](N(C)CCOCCOCCOCCOCCOCCOCCOCCOCCNC(=O)CCNC(=O)c3nc(NC(=O)CCNC(=O)c4cc(NC(=O)c5nc(NC(=O)CCNC(=O)c6cc(NC(=O)c7nccn7C)cn6C)cn5C)cn4C)cn3C)CC1)c1nnc(C)n1-2", "note": "[Compound 22]", "EC50": "< 100"}, {"molecule": "Cc1sc2c(c1C)C(c1ccc(Cl)cc1)=N[C@@H](CC(=O)NC1CCN(CCOCCOCCOCCN3CCN(CCOCCOCCOCCNC(=O)CCNC(=O)c4nc(NC(=O)CCNC(=O)c5cc(NC(=O)c6nc(NC(=O)CCNC(=O)c7cc(NC(=O)c8nccn8C)cn7C)cn6C)cn5C)cn4C)CC3)CC1)c1nnc(C)n1-2", "note": "[Compound 23]", "EC50": "100 to 500"}, {"molecule": "COc1ccc2c(c1)C(c1ccc(Cl)cc1)=N[C@@H](CC(=O)NC1CCN(CCOCCOCCOCCN3CCN(CCOCCOCCOCCNC(=O)CCNC(=O)c4nc(NC(=O)CCNC(=O)c5cc(NC(=O)c6nc(NC(=O)CCNC(=O)c7cc(NC(=O)c8nccn8C)cn7C)cn6C)cn5C)cn4C)CC3)CC1)c1nnc(C)n1-2", "note": "[Compound 24]", "EC50": "100 to 500"}, {"molecule": "Cc1sc2c(c1C)C(c1ccc(Cl)cc1)=N[C@@H](CC(=O)N1CC3(CCN(CCOCCOCCOCCN4CCN(CCOCCOCCOCCNC(=O)CCNC(=O)c5nc(NC(=O)CCNC(=O)c6cc(NC(=O)c7nc(NC(=O)CCNC(=O)c8cc(NC(=O)c9nccn9C)cn8C)cn7C)cn6C)cn5C)CC4)CC3)C1)c1nnc(C)n1-2", "note": "[Compound 25]", "EC50": "> 500"}, {"molecule": "COc1ccc2c(c1)C(c1ccc(Cl)cc1)=N[C@@H](CC(=O)N1CC3(CCN(CCOCCOCCOCCN4CCN(CCOCCOCCOCCNC(=O)CCNC(=O)c5nc(NC(=O)CCNC(=O)c6cc(NC(=O)c7nc(NC(=O)CCNC(=O)c8cc(NC(=O)c9nccn9C)cn8C)cn7C)cn6C)cn5C)CC4)CC3)C1)c1nnc(C)n1-2", "note": "[Compound 26]", "EC50": "> 500"}, {"molecule": "Cc1sc2c(c1C)C(c1ccc(Cl)cc1)=N[C@@H](CC(=O)N1CCN(CCOCCOCCOCCN3CCN(CCOCCOCCOCCNC(=O)CCNC(=O)c4nc(NC(=O)CCNC(=O)c5cc(NC(=O)c6nc(NC(=O)CCNC(=O)c7cc(NC(=O)c8nccn8C)cn7C)cn6C)cn5C)cn4C)CC3)CC1)c1nnc(C)n1-2", "note": "[Compound 27]", "EC50": "> 500"}, {"molecule": "COc1ccc2c(c1)C(c1ccc(Cl)cc1)=N[C@@H](CC(=O)N1CCN(CCOCCOCCOCCN3CCN(CCOCCOCCOCCNC(=O)CCNC(=O)c4nc(NC(=O)CCNC(=O)c5cc(NC(=O)c6nc(NC(=O)CCNC(=O)c7cc(NC(=O)c8nccn8C)cn7C)cn6C)cn5C)cn4C)CC3)CC1)c1nnc(C)n1-2", "note": "[Compound 28]", "EC50": "> 500"}]}]}
